How the values were obtained:
SH-SY5Y cells = test: Cell viability (MTS) of SH-SY5Y cells treated with erastin (ferroptosis), neurotoxicity model; assay type: cell-based, Human; conditions: 10 μM erastin 24 h
Description: (§1) The SH-SY5Y neuronal cells (Human Neuroblastoma Cell line) and HT-22 cells (Mouse Hippocampal Neuronal Cell line) were maintained in standard DMEM with GlutaMAX medium (GIBCO), supplemented with 10% fetal bovine serum (GIBCO), at 37° C. in presence of 5% CO2.
(§2) SH-SY5Y, LLC-PK1, ARPE-19 and HT22 cells were seeded in 96-well plates at a density of 10 000 or 5000 cells per well respectively, following overnight incubation. Cells were treated with 10 μM (SH-SY5Y cells) or 0.5 μM (HT22 cells) of erastin or 2 μM of RSL3 (LLCPK1) or 10 mM of sodium iodate (ARPE-19 cells) for 24 h.
(§3) Erastin and RSL3 was purchased from Selleck Chemical and sodium iodate from Sigma Aldrich. Cell viability was assessed by MTS assay (CellTiter 96@D AQueous Non-Radioactive Cell Proliferation Assay; Promega, Fitchburg, WI, USA) according to the manufacturer's instructions. This assay is based on the reduction of the 3-(4,5-dimethylthiazol-2-yl)-5-(3-carboxymethoxyphenyl)-2-(4-sulfophenyl)-2H-tetrazolium (MTS) by viable cells to form a colored formazan product. After treatment, cells were incubated 3 h at 37° C., 5% CO2 with MTS. The absorbance was measured using a microplate reader at 490 and 630 nm and the percentage of viability was calculated by dividing the absorbance of testing compound by the absorbance of DMSO treated cells (control).
(§4) Cells (HT-22, SHSY-5Y, LLC-PK1 and ARPE 19) were seeded in a 96-well plate in their respective medium overnight. The next day they were treated with NAC or a derivative thereof including NACA or N-acetylcysteine ethyl ester (compound A), with inhibitor compound (compound B) or with a combination of the two compounds. The analysis of the effects of the combination of the association of compound A (NAC or a derivative thereof including NACA and N-acetylcysteine ethyl ester) with another compound B is based on the independence model of Bliss. In this approach, the effect of compound alone (EA or EB) or in combination is expressed as a probability (0≤E≤1). The combined effect of the compounds is defined by:
(§5) wherein EA and EB represent the effects of compound A and compound B respectively, and EAB the combined effect of the combination of A and B (expected effect on histogram). Calculation index CI is calculated as follows: CI=(EA+EB−EA*EB)/EAB wherein CI is synergistic, antagonistic or additive when CI is under, above or equal to 1 respectively [Duarte et al., Current Research in Pharmacology and Drug Discovery, 2022].
Cell death by ferroptosis was induced by erastin [Dixon et al., Cell, 2012, 149(5), 1060-1072] in both cell lines. Erastin is a well described ferroptosis inducer and also a molecular tool to study neuronal pathologies [Lewerenz et al., Front. Neurosci., 2018, 12: 214].

HT-22 cells = test: Cell viability (MTS) of HT22 cells treated with erastin (ferroptosis), neurotoxicity model; assay type: cell-based, Mouse; conditions: 0.5 μM erastin 24 h
Description: as §1, §2, §3
Cells (HT-22, SHSY-5Y, LLC-PK1 and ARPE 19) were seeded in a 96-well plate in their respective medium overnight. […] In this approach, the effect of compound alone (EA or EB) or in combination is expressed as a probability (0≤E≤1). […]
wherein EA and EB represent the effects of compound A and compound B respectively, and EAB the combined effect of the combination of A and B (expected effect on histogram). Calculation index CI is calculated as follows: CI=(EA+EB−EA*EB)/EAB wherein CI is synergistic, antagonistic or additive when CI is under, above or equal to 1 respectively [Duarte et al., Current Research in Pharmacology and Drug Discovery, 2022]. […]

LLC-PK1 cells = test: Cell viability (MTS) of LLC-PK1 cells treated with RSL3; assay type: cell-based, Pig; conditions: 2 μM RSL3 24 h
Description: The LLC-PK1 cells (Pig Kidney Epithelial cells) were cultured in DMEM/F12(GIBCO), supplemented with 10% fetal bovine serum (GIBCO), at 37° C. in presence of 5% CO2.
as §2, §3
Cells (HT-22, SHSY-5Y, LLC-PK1 and ARPE 19) were seeded in a 96-well plate in their respective medium overnight. The next day they were treated with NAC or a derivative thereof including NACA or N-acetylcysteine ethyl ester (compound A), with inhibitor compound (compound B) or with a combination of the two compounds. […] In this approach, the effect of compound alone (EA or EB) or in combination is expressed as a probability (0≤E≤1). […]
as §5

[1] = system: mice model of APAP intoxication; test: In vivo mice model of APAP intoxication, plasma ALT; design: species or system C57Bl/6J male mice; conditions: for ALT plasma level: 8 h after APAP, APAP only ~3000, control ~100 IU/L
Description: Nine-week-old C57Bl/6J male mice were purchased from Janvier Labs (Le Genest St Isle, France). After one week of acclimatization in the animal house, mice were fasted overnight before experimentation. Acetaminophen (APAP) was purchased from Sigma-Aldrich (A70-85-100 g, batch #SCLF8273) and diluted at 20 mg/mL in PBS (preheated at 45° C.). Acetaminophen intoxication was induced in mice by intraperitoneal (i.p.) injection of APAP (400 mg/kg). One hour after APAP injection, mice were treated with inhibitors by intraperitoneal injection. N-acetylcysteine (NAC, A9165-25 g, Sigma-Aldrich, batch #SLCJ1628), the reference treatment for paracetamol intoxication, was diluted at 40 mg/mL in PBS Tween80 5% and injected via intraperitoneal route at a dose of 200 mg/kg. Compound 7 was diluted at 1 mg/ml or 2 mg/ml in PBS Tween80 5% and injected by intraperitoneal injection with increasing concentrations (2.5, 5 or 10 mg/kg) or in combination with NAC (200 mg/kg). There were two groups of control mice: the first one was injected via i.p. route with PBS Tween80 5% (Tween80 5%) and the second group, treated with APAP, was administered one hour after APAP with PBS Tween80 5% (APAP-Tween80 5%) via i.p.. Mice were slaughtered eight hours after APAP injection. Blood and liver were collected.
Serum alanine aminotransferase (ALT) plasma levels were measured according to the International Federation of Clinical Chemistry and Laboratory Medicine primary reference procedures using an Olympus AU2700 Autoanalyser (Olympus Optical).
Results were expressed as means SEM. Mean differences between two experimental groups were assessed using the non-parametric Mann-Whitney U-test. […] Calculated P values are integrated on histograms and graphs. Significance is shown as follows: $ P<0.05, $$ P<0.01, $$$ P<0.001 and $$$ P<0.0001 (comparison between APAP mice and APAP mice treated with NAC and/or compound 7); * P<0.05, ** P<0.01, *** P<0.001 and **** P<0.0001 (comparison between treated groups).
Nine Groups of Mice were Studied: • Tween80 5%, n=15 • APAP (400 mg/kg)+Tween 80 5%, n=31 • APAP (400 mg/kg)+NAC (200 mg/kg), n=15 • APAP (400 mg/kg)+compound 7 (2.5 mg/kg), n=23 • APAP (400 mg/kg)+compound 7 (5 mg/kg), n=21 • APAP (400 mg/kg)+compound 7 (10 mg/kg), n=21 • APAP (400 mg/kg)+compound 7 (2.5 mg/kg)+(NAC 200 mg/kg), n=9 • APAP (400 mg/kg)+compound 7 (5 mg/kg)+NAC (200 mg/kg), n=9 • APAP (400 mg/kg)+compound 7 (10 mg/kg)+NAC (200 mg/kg), n=13

ARPE-19 cells = test: Cell viability (MTS) of ARPE-19 cells treated with sodium iodate, model of eye disease; assay type: cell-based, Human; conditions: 10 mM sodium iodate 24 h
Description: The ARPE-19 cells (Human Retinal pigment epithelial cell line) were cultured in standard DMEM/F12 medium (GIBCO), supplemented with 10% fetal bovine serum (GIBCO), at 37° C. in presence of 5% CO2.
as §2, §3, §4, §5
Age-related macular degeneration, or AMD, is characterized by vision loss caused by degeneration of the central cells of the retina, called the macula. […] One model used to study retinal cell death is that of human ARPE-19 cells, a retinal pigment epithelial cell line, in the presence of sodium iodate (NaIO3, a potent oxidizing agent) [Hanus et al. Cell Death Discov. 2016, 2, 16054][Chan et al., J. Biomed. Sci., 2019, 26:40].

[2] = NAC 200 mg/kg with compound 7 10 mg/kg i.p. one hour after APAP 400 mg/kg

Oc1ccc(-c2cc3cccnc3[nH]2)cc1 [Compound 7, sibiriline]
effect on viability, combined with N-acetylcysteine ethyl ester (Bliss model) (SH-SY5Y cells; FIG. 14, 10 μM Compound 7 + 100 μM N-acetylcysteine ethyl ester): synergistic effect | effect on viability, compound alone (SH-SY5Y cells; FIG. 14, 10 μM Compound 7 alone): significant effect | effect on viability, combined with NAC (Bliss model) (HT-22 cells; FIG. 5, 25 μM cmpd 7 + 100 μM NAC): synergistic effect | effect on viability, combined with NAC (Bliss model) (LLC-PK1 cells; FIG. 10, 2.5 μM Compound 7 + 500 μM NAC): synergistic effect | protective effect against APAP toxicity, combination versus NAC alone or compound 7 alone ([1]; NAC 200 mg/kg in combination with compound 7 2.5, 5 or 10 mg/kg i.p., FIG. 9a-c): better and synergistic protective effect | protection against APAP toxicity [1, 2]: almost complete protection | ALT plasma level [1, 2]: ~ 200 IU/L | ALT plasma level ([1]; compound 7 10 mg/kg i.p. one hour after APAP 400 mg/kg i.p.): ~ 1000 IU/L | effect on ALT plasma levels, compound alone ([1]; compound 7 2.5, 5 or 10 mg/kg i.p. one hour after APAP 400 mg/kg, maximum effect at 10 mg/kg): reducing ALT plasma levels in a dose-dependent manner

NCCOCCOc1ccc(-c2cc3cccnc3[nH]2)cc1 [Compound 45]
effect on viability, combined with NAC (Bliss model) (ARPE-19 cells; FIG. 1, 10 μM cmpd 45 + 100 μM NAC): synergistic effect | effect on viability, compound alone (ARPE-19 cells; FIG. 1, 10 μM cmpd 45 alone): significant effect

CC(=O)N[C@@H](CS)C(=O)O [NAC, N-acetylcysteine]
ALT plasma level ([1]; NAC 200 mg/kg i.p. one hour after APAP 400 mg/kg i.p.): ~ 1300 IU/L

Oc1ccc(-c2cc3ccc(Cl)nc3[nH]2)cc1 [Compound 37]
effect on viability, combined with NAC (Bliss model) (HT-22 cells; FIG. 6, 50 μM cmpd 37 + 100 μM NAC): synergistic effect

COc1cc(O)c2c(c1)OC(O)(c1ccc(OCc3ccccc3)cc1)CC2=O (stereo not shown) [Compound 46]
effect on viability, combined with NAC (Bliss model) (ARPE-19 cells; FIG. 2, 5 μM cmpd 46 + 50 μM NAC): synergistic effect | effect on viability, compound alone (ARPE-19 cells; FIG. 2, 5 μM cmpd 46 alone): significant effect | effect on viability, combined with NACA (Bliss model) (ARPE-19 cells; FIG. 13, 10 μM cmpd 46 + 125 μM NACA): synergistic effect | effect on viability, compound alone (ARPE-19 cells; FIG. 13, 10 μM cmpd 46 alone): significant effect | effect on viability, combined with NAC (Bliss model) (SH-SY5Y cells; FIG. 3, 25 μM cmpd 46 + 100 μM NAC): synergistic effect | effect on viability, compound alone (SH-SY5Y cells; FIG. 3, 25 μM cmpd 46 alone): significant effect | effect on viability, combined with N-acetylcysteine ethyl ester (Bliss model) (SH-SY5Y cells; FIG. 16, 25 μM Compound 46 + 100 μM N-acetylcysteine ethyl ester): synergistic effect | effect on viability, compound alone (SH-SY5Y cells; FIG. 16, 25 μM Compound 46 alone): significant effect | effect on viability, combined with NAC (Bliss model) (LLC-PK1 cells; FIG. 12, 25 μM Compound 46 + 500 μM NAC): synergistic effect

Oc1ccc(-c2cc3ccccc3[nH]2)cc1 [Compound 1]
effect on viability, combined with NAC (Bliss model) (SH-SY5Y cells; FIG. 4, 1 μM cmpd 1 + 100 μM NAC): synergistic effect | effect on viability, compound alone (SH-SY5Y cells; FIG. 4, 1 μM cmpd 1 alone): significant effect | effect on viability, combined with N-acetylcysteine ethyl ester (Bliss model) (SH-SY5Y cells; FIG. 15, 2.5 μM Compound 1 + 100 μM N-acetylcysteine ethyl ester): synergistic effect | effect on viability, compound alone (SH-SY5Y cells; FIG. 15, 2.5 μM Compound 1 alone): significant effect | effect on viability, combined with NAC (Bliss model) (HT-22 cells; FIG. 7, 5 μM cmpd 1 + 100 μM NAC): synergistic effect | effect on viability, combined with NAC (Bliss model) (LLC-PK1 cells; FIG. 11, 1 μM Compound 1 + 500 μM NAC): synergistic effect
